Assay [1] can be described thus: HEK-293T cell viability reduction – luminescence, B-cell screen hits, cytotoxicity control for BCR NF-kB inhibitor project, dose response (AID 489021).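 Further: HEK-293T cells carrying an NF-kB luciferase reporter; cells exposed to compound for about 14 hours before viability readout.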 The format is functional, cell-based.
The target in assay [2] is T1, Neuropeptides B/W receptor type 1 (Homo sapiens, UniProt P48145).
T1 sequence (P48145 whole entry): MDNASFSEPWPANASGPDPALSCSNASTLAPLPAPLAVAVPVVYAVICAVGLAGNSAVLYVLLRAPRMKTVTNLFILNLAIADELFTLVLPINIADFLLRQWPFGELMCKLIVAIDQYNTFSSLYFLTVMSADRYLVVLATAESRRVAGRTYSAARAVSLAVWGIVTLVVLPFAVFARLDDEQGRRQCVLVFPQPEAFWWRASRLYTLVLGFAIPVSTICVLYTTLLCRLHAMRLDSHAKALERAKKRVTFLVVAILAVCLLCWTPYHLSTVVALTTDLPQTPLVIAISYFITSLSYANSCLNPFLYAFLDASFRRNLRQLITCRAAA
Nature of the assay: Fluorescence-based dose response cell-based high throughput screening assay to identify antagonists of the G-protein coupled receptor 7 (GPR7). [Related pubchem assays: 1952 (Screening assay (GPR7 antagonists).), 1880 (Summary AID.)]. The format is functional.

In assay [3] the target is Melanin-concentrating hormone receptor 1 (Homo sapiens, UniProt Q99705). Nature of the assay: Fluorescence-based counterscreen for antagonists of the G-protein coupled receptor 7 (GPR7): cell-based high throughput dose response assay to identify antagonists of the melanin-concentrating hormone receptor 1 (MCHR1). The format is functional.
Sequence of Melanin-concentrating hormone receptor 1 (Q99705 whole entry): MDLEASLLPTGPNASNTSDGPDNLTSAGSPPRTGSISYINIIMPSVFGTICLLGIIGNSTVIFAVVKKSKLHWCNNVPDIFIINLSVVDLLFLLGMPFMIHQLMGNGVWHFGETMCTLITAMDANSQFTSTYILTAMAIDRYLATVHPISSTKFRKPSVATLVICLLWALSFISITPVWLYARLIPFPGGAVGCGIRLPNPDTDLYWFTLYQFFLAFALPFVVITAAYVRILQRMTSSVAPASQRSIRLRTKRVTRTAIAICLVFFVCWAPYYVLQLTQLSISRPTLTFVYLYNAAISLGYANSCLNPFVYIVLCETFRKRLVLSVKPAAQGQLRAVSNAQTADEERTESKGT
Assay [4] concerns Streptococcus. Nature of the assay: GAS UMAA2166 growth inhibition – luminescence, BacTiterGlo, counter-screen for streptokinase expression inhibitor project, dose response (AID 1915).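 Further: potency for reduction of bacterial viability or growth.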 The format is functional, organism-based.
Assay [5] is described as follows: Luminescence Cell-Based Dose Retest to Confirm Inhibitors of Cancer Stem Cells. [Related pubchem assays (depositor defined):AID2717, AID2721]. It is filed as functional. To be noted: Homo sapiens.
The subject of assay [6] is Streptococcus sp. 'group A'. Nature of the assay: Streptococcus pyogenes SK(-)GAS viability under kanamycin – luminescence, BacTiterGlo, confirmation, counter-screen for streptokinase expression inhibitor project, dose response (AID 1900). The format is functional, organism-based.
Assay [7] relates to BJ. Nature of the assay: cells. It is filed as functional, cell-based. To be noted: Homo sapiens.
A short description of assay [8]: DRD fibroblast viability loss – cell-based, non-viral oncogenic, luminescence, dose response (AID 1934). It is filed as functional. Particulars: Homo sapiens.
Assay [9] concerns BJ. Nature of the assay: BJ-TERT-LT-ST fibroblast viability loss – cell-based, RAS-independent, luminescence, dose response (AID 1935).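 Further: BJ fibroblasts immortalized with TERT plus LT and ST oncogenes.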 The format is functional. To be noted: Homo sapiens.
Assay [10] addresses T2, Voltage-gated N-type calcium channel alpha-1B subunit/Amyloid beta A4 precursor protein-binding family A member 1 (Homo sapiens, UniProt Q00975+Q02410). It is filed as protein assay.
For assay [11], the target named is T3, Streptokinase A (Streptococcus pyogenes serotype M1, UniProt P10520).
T3 sequence (P10520 whole entry): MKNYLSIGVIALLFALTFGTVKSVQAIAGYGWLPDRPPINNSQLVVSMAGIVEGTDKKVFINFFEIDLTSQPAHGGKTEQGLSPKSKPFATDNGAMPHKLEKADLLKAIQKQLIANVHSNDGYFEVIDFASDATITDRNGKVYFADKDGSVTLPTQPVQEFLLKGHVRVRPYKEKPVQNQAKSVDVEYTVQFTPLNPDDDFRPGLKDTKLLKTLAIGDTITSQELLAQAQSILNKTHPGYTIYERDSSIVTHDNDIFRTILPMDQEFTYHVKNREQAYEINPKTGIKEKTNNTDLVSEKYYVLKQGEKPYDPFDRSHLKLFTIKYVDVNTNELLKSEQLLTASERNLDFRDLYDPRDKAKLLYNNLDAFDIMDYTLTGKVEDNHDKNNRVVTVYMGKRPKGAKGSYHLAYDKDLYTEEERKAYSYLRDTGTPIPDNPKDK
Nature of the assay: viability-normalized secreted streptokinase activity reduction – plasminogen activation absorbance, OD405, dose response (AID 1914).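 Further: secreted streptokinase activity via plasminogen activation per viability signal from cell pellet.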 It is filed as functional, Streptococcus pyogenes M1 GAS.

Assay [12] has as its target T4, Galanin receptor type 3 (Homo sapiens, UniProt O60755).
T4 sequence (O60755 whole entry): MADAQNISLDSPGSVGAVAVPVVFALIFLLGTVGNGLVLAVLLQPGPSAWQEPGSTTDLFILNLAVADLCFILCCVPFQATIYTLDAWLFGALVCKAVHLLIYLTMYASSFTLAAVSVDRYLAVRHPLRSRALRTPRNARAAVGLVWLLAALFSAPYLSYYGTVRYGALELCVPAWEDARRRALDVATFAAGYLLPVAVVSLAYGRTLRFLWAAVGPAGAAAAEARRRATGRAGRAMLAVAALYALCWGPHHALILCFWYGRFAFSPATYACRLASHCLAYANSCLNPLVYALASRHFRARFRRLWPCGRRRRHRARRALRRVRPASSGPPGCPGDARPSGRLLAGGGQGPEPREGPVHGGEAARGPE
Nature of the assay: Fluorescence-based cell-based primary high throughput dose response assay to identify antagonists of the Galanin Receptor 3 (GalR3). The format is functional.

Assay [13] deals with T2, Voltage-gated N-type calcium channel alpha-1B subunit/Amyloid beta A4 precursor protein-binding family A member 1. The format is protein assay. This is another data set of the same source.
A short description of assay [14]: cells. The format is functional, cell-based. Particulars: HEK-CNG.
Assay [15] relates to BJ. Nature of the assay: BJ-TERT fibroblast viability loss – cell-based, RAS-independent, luminescence, dose response (AID 1933). It is filed as functional. To be noted: Homo sapiens.
The target of assay [16] is T5, CAAX prenyl protease 2 (Homo sapiens, UniProt Q9Y256).
T5 sequence (Q9Y256 whole entry): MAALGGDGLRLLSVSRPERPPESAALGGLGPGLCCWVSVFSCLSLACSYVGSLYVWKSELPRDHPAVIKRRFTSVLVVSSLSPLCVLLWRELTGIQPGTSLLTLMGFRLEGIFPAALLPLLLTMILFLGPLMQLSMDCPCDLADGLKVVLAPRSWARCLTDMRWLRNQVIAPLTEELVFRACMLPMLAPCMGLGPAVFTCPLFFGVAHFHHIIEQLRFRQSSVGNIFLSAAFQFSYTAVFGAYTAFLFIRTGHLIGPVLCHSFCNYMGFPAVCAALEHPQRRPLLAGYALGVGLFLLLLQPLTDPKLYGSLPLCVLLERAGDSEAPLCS
Nature of the assay: inhibition of Ras-converting CAAX protease Rce1 – biochemical, yeast membranes, quenched-peptide fluorescence, cherry-pick, dose response (AID 588849).

The target in assay [17] is Trypsin (Sus scrofa, UniProt P00761). The assay is described as follows: trypsin protease activity blockade – biochemical, quenched peptide fluorescence, cherry-pick, selectivity assay for Rce1 protease inhibitor project, dose response (AID 488789).
Sequence of Trypsin (P00761 whole entry): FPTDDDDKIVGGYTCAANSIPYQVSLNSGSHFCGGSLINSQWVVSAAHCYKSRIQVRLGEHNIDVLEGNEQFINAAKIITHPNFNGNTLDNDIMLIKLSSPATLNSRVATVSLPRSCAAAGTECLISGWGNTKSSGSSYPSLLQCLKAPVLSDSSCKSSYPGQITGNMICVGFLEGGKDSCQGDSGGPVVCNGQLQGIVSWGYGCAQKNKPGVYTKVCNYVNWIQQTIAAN

SMILES strings stand for the structures. Calls of active or inactive are those of the source.

T2 sequence (Q00975 whole entry): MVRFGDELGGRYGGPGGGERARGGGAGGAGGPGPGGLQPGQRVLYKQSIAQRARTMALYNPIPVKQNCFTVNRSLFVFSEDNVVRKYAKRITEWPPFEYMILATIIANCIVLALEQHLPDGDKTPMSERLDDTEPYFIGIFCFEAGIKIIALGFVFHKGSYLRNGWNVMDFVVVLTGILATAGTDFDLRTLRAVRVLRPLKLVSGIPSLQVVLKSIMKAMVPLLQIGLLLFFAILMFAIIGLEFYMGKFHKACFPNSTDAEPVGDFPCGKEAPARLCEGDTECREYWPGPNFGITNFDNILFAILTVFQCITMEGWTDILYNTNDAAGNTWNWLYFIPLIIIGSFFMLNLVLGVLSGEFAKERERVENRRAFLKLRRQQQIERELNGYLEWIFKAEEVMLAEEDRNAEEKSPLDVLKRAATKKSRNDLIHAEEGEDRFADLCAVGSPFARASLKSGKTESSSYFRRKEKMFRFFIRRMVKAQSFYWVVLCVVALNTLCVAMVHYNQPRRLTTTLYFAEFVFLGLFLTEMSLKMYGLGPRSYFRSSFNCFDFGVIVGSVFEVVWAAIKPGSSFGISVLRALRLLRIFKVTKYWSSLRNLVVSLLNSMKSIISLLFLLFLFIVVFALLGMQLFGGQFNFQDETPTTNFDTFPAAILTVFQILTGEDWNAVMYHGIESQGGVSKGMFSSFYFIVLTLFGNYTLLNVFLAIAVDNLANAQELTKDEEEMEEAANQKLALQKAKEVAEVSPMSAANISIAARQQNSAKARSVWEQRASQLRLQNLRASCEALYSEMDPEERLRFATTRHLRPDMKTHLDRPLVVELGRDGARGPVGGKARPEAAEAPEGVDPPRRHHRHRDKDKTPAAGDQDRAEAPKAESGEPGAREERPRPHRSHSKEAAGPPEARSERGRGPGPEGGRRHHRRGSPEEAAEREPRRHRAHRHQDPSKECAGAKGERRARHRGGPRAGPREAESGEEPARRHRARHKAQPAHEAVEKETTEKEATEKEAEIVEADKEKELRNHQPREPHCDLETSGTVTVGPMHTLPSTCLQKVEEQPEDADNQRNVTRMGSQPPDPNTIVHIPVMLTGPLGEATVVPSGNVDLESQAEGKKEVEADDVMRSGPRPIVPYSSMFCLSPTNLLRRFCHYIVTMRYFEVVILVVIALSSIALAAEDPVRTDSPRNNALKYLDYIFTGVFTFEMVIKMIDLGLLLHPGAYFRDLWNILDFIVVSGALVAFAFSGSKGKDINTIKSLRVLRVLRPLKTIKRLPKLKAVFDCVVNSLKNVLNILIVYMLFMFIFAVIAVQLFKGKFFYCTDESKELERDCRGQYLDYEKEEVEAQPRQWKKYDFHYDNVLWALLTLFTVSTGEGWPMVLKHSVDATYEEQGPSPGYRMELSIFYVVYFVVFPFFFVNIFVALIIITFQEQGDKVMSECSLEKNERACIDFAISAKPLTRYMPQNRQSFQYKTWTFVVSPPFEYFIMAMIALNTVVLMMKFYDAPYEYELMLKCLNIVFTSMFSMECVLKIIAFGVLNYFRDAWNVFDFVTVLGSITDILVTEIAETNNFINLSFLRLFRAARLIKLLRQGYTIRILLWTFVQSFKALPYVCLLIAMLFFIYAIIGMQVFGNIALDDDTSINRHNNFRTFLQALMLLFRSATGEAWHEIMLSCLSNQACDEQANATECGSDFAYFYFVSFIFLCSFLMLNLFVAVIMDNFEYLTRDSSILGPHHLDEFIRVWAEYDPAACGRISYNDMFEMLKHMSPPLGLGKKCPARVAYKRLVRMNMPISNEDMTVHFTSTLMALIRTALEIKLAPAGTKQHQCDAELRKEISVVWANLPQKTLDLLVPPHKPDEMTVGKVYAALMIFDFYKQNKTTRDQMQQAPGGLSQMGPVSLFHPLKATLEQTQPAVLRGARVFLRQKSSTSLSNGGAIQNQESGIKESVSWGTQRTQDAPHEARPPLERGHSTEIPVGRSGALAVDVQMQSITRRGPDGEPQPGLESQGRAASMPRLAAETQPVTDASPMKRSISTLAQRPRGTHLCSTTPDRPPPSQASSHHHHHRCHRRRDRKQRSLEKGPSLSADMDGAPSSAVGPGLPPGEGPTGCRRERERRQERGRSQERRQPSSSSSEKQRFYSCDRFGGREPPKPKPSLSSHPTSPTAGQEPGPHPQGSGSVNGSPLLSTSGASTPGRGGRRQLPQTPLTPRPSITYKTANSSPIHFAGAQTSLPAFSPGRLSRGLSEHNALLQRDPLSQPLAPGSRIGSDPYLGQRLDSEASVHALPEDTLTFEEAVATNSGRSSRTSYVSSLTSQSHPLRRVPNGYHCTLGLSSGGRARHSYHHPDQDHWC
T2 sequence (Q02410 whole entry): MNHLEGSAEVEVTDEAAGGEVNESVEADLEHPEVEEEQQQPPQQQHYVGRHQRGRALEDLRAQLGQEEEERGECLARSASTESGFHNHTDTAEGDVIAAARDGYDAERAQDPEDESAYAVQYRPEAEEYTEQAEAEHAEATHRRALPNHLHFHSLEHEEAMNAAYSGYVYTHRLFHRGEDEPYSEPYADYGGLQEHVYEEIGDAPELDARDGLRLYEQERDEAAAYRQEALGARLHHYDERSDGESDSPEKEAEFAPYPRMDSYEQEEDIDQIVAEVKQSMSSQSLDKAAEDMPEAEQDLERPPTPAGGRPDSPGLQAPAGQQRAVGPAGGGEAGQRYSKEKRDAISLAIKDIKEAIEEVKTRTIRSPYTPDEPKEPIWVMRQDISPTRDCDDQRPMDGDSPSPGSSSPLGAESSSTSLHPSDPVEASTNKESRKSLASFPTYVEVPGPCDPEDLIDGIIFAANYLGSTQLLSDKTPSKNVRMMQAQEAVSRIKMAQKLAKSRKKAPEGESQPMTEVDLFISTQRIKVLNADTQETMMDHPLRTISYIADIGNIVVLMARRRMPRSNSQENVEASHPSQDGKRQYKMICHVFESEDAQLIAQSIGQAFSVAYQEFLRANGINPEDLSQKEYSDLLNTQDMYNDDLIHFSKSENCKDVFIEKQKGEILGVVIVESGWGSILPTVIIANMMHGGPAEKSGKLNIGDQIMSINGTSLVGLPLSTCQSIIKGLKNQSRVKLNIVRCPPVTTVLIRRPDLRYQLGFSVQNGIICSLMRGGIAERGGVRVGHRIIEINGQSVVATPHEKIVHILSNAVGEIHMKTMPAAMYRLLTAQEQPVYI

On to `Cc1ccc(S(=O)(=O)Nc2ccc3c(c2)n(C)c(=O)n3C)cc1`, for which, in [1], the IC50 is > 80 µM (inactive).

For `Cc1ccccc1NC(=O)C1CCCN(c2ncnc3onc(-c4ccc(F)cc4)c23)C1` (stereo not given), the IC50 in assay [2] and in assay [3] was > 43.8 µM (not active) in each case.

In the case of `Cc1ccc(CN2C(=O)c3ccccc3Sc3ccc(C(=O)NCCCN4CCOCC4)cc32)cc1`, the IC50 in [2] was 6.89 µM (active); in [3] it was 10.4 µM (not active).

With `Cc1ccccc1-c1cc(C(=O)Nc2sc(C(=O)OC(C)C)c(C)c2C#N)c2ccccc2n1`, the EC50 in assay [4] was 26 µM (active); in assay [6], 14.6 µM (active); in [7], > 150 µM (inconclusive); in assay [8], 42.3 µM (active); in [9], > 75 µM (inconclusive); in [11] it was > 150 µM (not active). Besides, the EC50 is > 29.9 µM (inactive) in assay [14] and > 150 µM (not active) in assay [15]. Further, in [5], the half-maximal activity concentration (AC50) was 0.246 µM (active). Further, the IC50 in assay [10] was 17.9 µM (active); in [12] it was 0.967 µM (active); in assay [13] it was > 50 µM (inactive); in assay [1], 45.6 µM (inactive).

`CCOc1cc(-c2nc3c(C)cccn3c2NCC2CCCO2)ccc1O.CNC` (stereo not given): the AC50 in [16] is 15.1 µM (active); in assay [17] it was 12.7 µM (active).

Source of the values: ChEMBL document CHEMBL1201862, “PubChem BioAssay data set” (2004).
